Experimental data published in publication PMC9661696, “Inhibition of β-Amyloid Aggregation in Alzheimer’s Disease: The Key Role of (Pro)electrophilic Warheads” (ACS Medicinal Chemistry Letters, 2022).

Experiments:
[1] = biological target: T1, Aβ42 (β-amyloid peptide) (Homo sapiens, UniProt P05067); assay: MS and LC-MS/MS detection of covalent adduct with Aβ[…]; ThT aggregation assay (IC50); type: biochemical
T1 construct: gene APP; Aβ42

[2] = biological target: T1, Aβ42 (β-amyloid peptide); assay: inhibition of Aβ[…] self-aggregation, MS monomer quantification at […] (also ThT assay); type: biochemical; conditions: read-out: inhibition of Aβ42 self-aggregation / % inhibition by MS ± SD [I] = 50 μM ^b

T1 sequence (P05067 672-713): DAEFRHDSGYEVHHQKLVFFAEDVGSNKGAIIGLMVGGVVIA

SMILES | IC50 [1] | inhibition at 50 µM [2]
CCCSC(=O)/C=C/c1cc(O)ccc1O [compound 3, para-hydroquinone 3] | 10.2 µM | –
CCCSC(=O)/C=C/c1ccc(O)c(O)c1 [compound 1] | – | 56.9%
